The record followed here is PubChem BioAssay AID179 (DTP/NCI, 2004).

This experiment concerns CEM cells HIV-1 protection, formazan growth assay. Nature of the experiment: NCI AIDS Antiviral Assay. Conditions: for IC50: measured here: growth of uninfected CEM cells. In short, it runs like this: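 Screen of anti-HIV-1 activity in human CEM cells using a formazan-based growth measurement at five drug concentrations. Hits with 50% or greater protection were repeated, and confirmation required reproducible complete protection.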

The structures appear in SMILES notation. Active and inactive are the calls of the source.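 Rule for the calls: active = compounds giving half or more protection of infected cells from virus-caused growth loss, again on retest; inactive = the rest.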 Where a SMILES comes first, the peptide text is derived from it.

Regarding `CC(=O)O[C@H]1CC2CCCC2C2C(=O)OC(=O)C21` (some centres undefined), the outcome was active.

The EC50 is the concentration giving half of the maximal effect. Broadly, the IC50 is the concentration that gives 50% inhibition. A lower IC50 goes with higher potency. In the case of `CC(C)(C)[Si](C)(C)OCC1OC(n2ccc(=O)[nH]c2=O)C(O[Si](C)(C)C(C)(C)C)[C@@]12N[C@H](C(N)=O)CS2=O` (some centres undefined), the EC50 was above 200 µM and the IC50 came out at 12.3 µM.

In the case of `Cc1cn(Cc2ccccc2CCO)c(=S)[nH]c1=O`, the EC50 is above 912 µM and the IC50 is above 912 µM.

For `C[C@]12CC[C@H](O)CC1=CC[C@@H]1C2CC[C@]2(C)NC(=O)CCC12` (some centres undefined), the result was inactive.

Take `CC1(C)C(CBr)=[N+]([O-])C(C)(C)N1O`: the EC50 was above 200 µM and the IC50 turned out to be 3.72 µM.

With `Cc1cc(C)c2c(c1)CN1CN2Cc2cc(C)cc(C)c21`, the result was inactive.

Turning to `C#CCNC(Cc1ccccc1)C(=O)O` (centres undefined), the EC50 is above 200 µM and the IC50 is above 200 µM.

Turning to `CC(O)C(C(=O)O)N(CC1(O)OCC(O)C(O)C1O)N=O` (centres undefined), the result was inactive.

Take `CCOC(=O)NC(=O)c1cn(CCSCCOC(=O)NCCCCCCNC(=O)OCCSCCn2cc(C(=O)NC(=O)OCC)c(=O)[nH]c2=O)c(=O)[nH]c1=O`: the result was inactive.

Take `CNC(=O)C1CCC(=O)N1CN(C(C)=O)c1ccccc1` (centres undefined): the EC50 was above 200 µM and the IC50 is above 200 µM.

On to `CCc1cccc(C(C)CC)c1NC(=O)CC1C(=O)Nc2ccccc2S1=O` (centres undefined), for which the EC50 was above 46.8 µM and the half-maximal inhibitory concentration (IC50) was above 46.8 µM.

On to `Cc1noc2c1NC(=O)OC(C)(C)C2`, for which the EC50 was above 447 µM and the IC50 is above 447 µM.

With `Cn1c(=O)c2[nH]c(/N=N\n3ccc4ccccc43)nc2n(C)c1=O`, the EC50 is above 200 µM and the IC50 worked out at 191 µM.

Turning to `CCOC(=O)NC(=O)c1cn(CCCOC(=O)NCCCCCCNC(=O)OCCCn2c(=O)c(C(=O)NC(=O)OCC)cn(C)c2=O)c(=O)n(C)c1=O`, the EC50 is above 33.9 µM and the IC50 is above 33.9 µM.

As to `O=S(=O)(OC=C1CCCCC1)C(F)(F)F`, the EC50 was above 107 µM and the IC50 was above 107 µM.

Take `NC(=O)SCC(=O)NNc1ccccc1`: the EC50 was above 200 µM and the IC50 turned out to be 4.47 µM.

Regarding `O=C1OC(CC(=O)c2ccc(Cl)cc2)C(Cl)=C1Cl` (centres undefined), the EC50 was above 85.1 µM and the IC50 was above 85.1 µM.

Consider `Cc1nc(N)c(N2CCNCC2)c(=O)[nH]1`, for which the EC50 is above 200 µM and the IC50 is above 200 µM.

Regarding `CC(=O)Nc1ncc(Sc2ccccc2C(=O)O)s1`, the EC50 is above 200 µM and the IC50 is above 200 µM.

As to `Cc1ccccc1-c1nc2ccc(N)nc2nc1N`, the result was inactive.

As to `CC(=O)OC(C(=O)[O][Sn]([CH3])([CH3])[CH3])c1ccccc1` (centres undefined), the outcome was inactive.

As for `CCOC(=O)c1nc2ccc(C(F)(F)F)cc2nc1Oc1cc(OC)c(OC)c(OC)c1`, the EC50 was above 100 µM and the IC50 is above 100 µM.

For `CC1=CC(C)C(=O)N(CCN2CCOCC2)C(C)=C1` (centres undefined), the EC50 is above 955 µM and the IC50 was above 955 µM.

With `CCCCCC(=O)OC1CN2CC[C@H](O)C2C(O)[C@@H]1O` (some centres undefined), the result was inactive.

For the molecule `O=C1NC(=O)N2CCSC2(Cc2ccccc2)N1` (centres undefined), the outcome was inactive.

Take `COP(=O)(Cc1ccc(/C=C/C#N)o1)OC`: the EC50 is above 200 µM and the IC50 was above 200 µM.

Turning to `C[Si]1(C)CCCSC1`, the EC50 is above 200 µM and the half-inhibitory concentration (IC50) was above 200 µM.

With `COc1ccc(/C=C2\CCc3ccccc3C2=O)cc1`, the EC50 is above 19.5 µM and the IC50 amounted to 12.6 µM.

As for `CCN(CC)CC(=O)N(CC)c1ccc(C)c(Cl)c1`, the EC50 is above 200 µM and the IC50 was above 200 µM.

For the molecule `COC(=O)C(=O)C(C(=O)OC)C(=O)C(=O)Nc1ccccc1C(N)=O` (centres undefined), the EC50 was above 74.1 µM and the IC50 is above 74.1 µM.

Consider `COC(=O)C(Cc1nc2ccccc2[nH]c1=O)C(=O)C(=O)Nc1ccc(OC)cc1[N+](=O)[O-]` (centres undefined), for which the EC50 is above 398 µM and the half-maximal inhibitory concentration (IC50) is above 398 µM.

In the case of `CCC(C)C(NC(=O)CNC(=O)CN)C(=O)NCC(=O)NCC(=O)O` (centres undefined) (HELM PEPTIDE1{G.G.[CCC(C)C(N[*:1])C(=O)[*:2]].G.G}$$$$V2.0), the EC50 is above 69.2 µM and the IC50 is above 69.2 µM.

Consider `O=C1C=C(NC(c2ccccc2)c2nc3ccccc3[nH]2)C(c2ccccc2)N1c1ccccc1` (centres undefined), for which the result was inactive.

Consider `COc1ccc(C(=O)C(C(=O)CC(=O)Nc2cccc(C(F)(F)F)c2)c2ccc(OC)cc2)cc1` (centres undefined), for which the EC50 is above 14.8 µM and the IC50 was above 14.8 µM.

As for `CCOC(=O)CCn1[nH]c(=O)c(Cl)c(Cl)c1=O`, the outcome was inactive.

As for `Nc1nc2c(-c3ccc([N+](=O)[O-])cc3)nnn2c2cccc(Cl)c12`, the EC50 is above 3.98 µM and the IC50 is above 3.98 µM.

Take `Cc1cc(NC(=O)c2ccc(N=Nc3c(S(=O)(=O)O)cc4cc(NC(=O)c5ccc(N)cc5)ccc4c3O)cc2)ccc1N=Nc1ccc2cc(S(=O)(=O)O)cc(S(=O)(=O)O)c2c1`: the outcome was active.

As for `CCOC(=O)CCNC(=O)c1cc(C)cc2c1Oc1c(cc(C)cc1C(=O)NCCC(=O)OCC)S2`, the EC50 is above 200 µM and the IC50 was found to be 29.5 µM.

On to `Cc1ccc(S(=O)(=O)N2CCn3ncc(C#N)c32)cc1`, for which the EC50 is above 186 µM and the IC50 is above 186 µM.

Take `COP(=O)(OC)C1c2ccccc2-c2cccc(C(=O)O)c21` (centres undefined): the EC50 is above 200 µM and the IC50 was above 200 µM.

Turning to `CCOC(=O)C(C(=N)C(=N)C(C(=O)O)C(=O)OCC)C(=O)O` (centres undefined), the outcome was inactive.

As to `CCCCCN1CCN(c2ncccn2)CC1`, the EC50 was above 200 µM and the IC50 was above 200 µM.

Consider `COc1ccc(/C=C2\CCCc3ccccc3C2=O)cc1`, for which the EC50 was above 200 µM and the IC50 came to 0.145 µM.

For `O=C(CC(C(=O)c1ccsc1)c1ccsc1)c1ccsc1` (centres undefined), the EC50 was above 200 µM and the IC50 was 22.4 µM.

As for `CC(=O)Nc1ccc(/C=C2\SC(=S)N(/C=C(\C(C)=O)C(N)=O)C2=O)cc1`, the EC50 is above 200 µM and the 50% inhibitory concentration (IC50) worked out at 72.4 µM.

For `O=C(OC12CC3CC(CC(C3)C1)C2)c1ccc(NCc2cc(O)ccc2O)cc1`, the EC50 was above 20 µM and the 50% inhibitory concentration (IC50) turned out to be 0.955 µM.

Consider `CCCCCCCCCCCCCCCCOCC(Cl)COP(=O)(O)OP(=O)(O)OCC1OC(n2cnc3c(N)ncnc32)C(O)C1O` (centres undefined), for which the EC50 is above 100 µM and the IC50 is above 100 µM.

In the case of `NC(=O)C1=NOC(C(N)=O)C1C1OC(CO)C(O)C1O` (centres undefined), the EC50 was above 200 µM and the IC50 was above 200 µM.

As for `NC(=S)N/N=C1\CCCC\C1=C/c1ccccc1`, the EC50 was above 138 µM and the IC50 came to 112 µM.

`O=C(O)C1CC2C=CCC(C2)C1` (centres undefined): the result was inactive.

With `COc1ccc(CCNC=O)cc1OC`, the result was inactive.

Take `C/C=C/CC(C)C(OS(=O)(=O)O)C1C(=O)NC(CC)C(=O)N(C)CC(=O)N(C)C(CC(C)C)C(=O)NC(C(C)C)C(=O)N(C)C(CC(C)C)C(=O)NC(C)C(=O)NC(C)C(=O)N(C)C(CC(C)C)C(=O)N(C)C(CC(C)C)C(=O)N(C)C(C(C)C)C(=O)N1C` (centres undefined): the EC50 is 0.661 µM and the IC50 was 6.61 µM.

As to `CSCCC(NOC(=O)Cc1ccccc1)P(=O)(O)c1ccccc1` (centres undefined), the EC50 was 195 µM and the IC50 was found to be 240 µM.

With `CC(c1ccccc1)N1CC(C)(c2ccccc2)N(O)C(c2ccccc2)C1C` (centres undefined), the EC50 is above 18.6 µM and the IC50 was above 18.6 µM.

Take `O=C1CC(=O)NC(=NN2C(=O)/C(=C/c3ccc(Cl)cc3)N=C2c2ccccc2)N1`: the EC50 was above 200 µM and the IC50 was 32.4 µM.

As to `CC(=O)N1c2ccccc2Sc2c1ccc1ccccc21`, the EC50 is above 200 µM and the half-inhibitory concentration (IC50) came to 45.7 µM.

Take `COc1ccc(CCn2cnn3c(=O)c4ccccc4nc3c2=O)cc1OC`: the EC50 was above 13.8 µM and the IC50 was above 13.8 µM.

Take `C=CC[C@@]1(C#N)C[C@H](C[C@]2(C#N)C[C@H](CCl)OC(C)(C)O2)OC(C)(C)O1`: the EC50 is above 200 µM and the IC50 was found to be 107 µM.

As to `Cc1c(C(c2[nH]c3ccccc3c2C)c2[nH]c3ccccc3c2C)[nH]c2ccccc12`, the EC50 is 0.0631 µM and the half-maximal inhibitory concentration (IC50) amounted to 13.5 µM.

Turning to `O=C(/C=C/c1ccc(Cl)cc1)c1ccc(Cl)c(Cl)c1`, the EC50 is above 32.4 µM and the 50% inhibitory concentration (IC50) is above 32.4 µM.

For `O=c1cc(CCc2ccccc2)oc2c(O)ccc(O)c12`, the result was inactive.

Regarding `CCOC(OCC)[C@@H]1C[C@@H]2N(O[C@H](OC3CCCC3(c3ccccc3)c3ccccc3)[C@H](OC(C)=O)[C@@]2(CC)Cc2ccc(OC)c(OC)c2)O1` (some centres undefined), the EC50 is above 200 µM and the IC50 was above 200 µM.

In the case of `S=C(SSC(=S)N1CCCCC1)N1CCCCC1`, the EC50 was above 200 µM and the 50% inhibitory concentration (IC50) turned out to be 29.5 µM.

As for `O=C(O)c1cc[c]([Sb](=[O])([OH])[OH])cc1[N+](=O)[O-]`, the EC50 was 10.2 µM and the IC50 was determined as 398 µM.

As to `Cc1cc(C)c(NS(=O)c2cccc([N+](=O)[O-])c2)c(C)c1` (centres undefined), the EC50 was above 30.9 µM and the half-inhibitory concentration (IC50) is above 30.9 µM.

For the molecule `COc1cc2c(cc1-c1coc3cc(OCC=C(C)C)ccc3c1=O)OCO2`, the EC50 is above 200 µM and the IC50 was determined as 7.08 µM.

Consider `Cc1cc(Br)ccc1N=NC1C(=O)ON=C1c1ccccc1` (centres undefined), for which the result was inactive.

`CCSc1nc2sc(C)c(C)c2c(=O)n1-c1ccc(C(=O)O)cc1`: the EC50 is above 200 µM and the IC50 was above 200 µM.

For the molecule `CCCCCCN(N)C(=O)CC#N`, the EC50 is above 39.8 µM and the IC50 was above 39.8 µM.

Consider `NC(=O)c1cc2ccc(O)c(O)c2cn1`, for which the EC50 was above 209 µM and the IC50 was found to be 2.95 µM.

Turning to `O=C(CN1CCC(O)(c2ccccc2)CC1)N1CCN(/C=C/c2ccccc2)CC1`, the EC50 was above 200 µM and the IC50 came out at 58.9 µM.

On to `CCSc1n/c(=C\c2ccco2)c2nnnn12`, for which the EC50 was above 50.1 µM and the IC50 was above 50.1 µM.

With `NC(=S)N/N=C1\C(=O)N(CCc2ccccc2)C(=O)C1C(=O)NCCc1ccccc1` (centres undefined), the EC50 was above 81.3 µM and the IC50 amounted to 70.8 µM.
